Measurements as given in patent US3931188A, “3-Hydroxy-5,6-benzomorphinan derivatives” (Bristol-Myers Company, priority 1974, dated 1976).

How the values were obtained:
[1] = Chemical Abstracts 63, 18050-18051 (Belgian Pat. No. 644,679); cited from earlier work
[2] = Chemical Abstracts 63, 18050-18051 (Belgian Pat. No. 644,679); cited from earlier work; remark: listed apart in the source
[3] = system: phenylquinone induced writhing; assay: Mouse phenylquinone writhing (analgesic activity); assay type: in vivo; settings: for analgesic potency relative to pentazocine: in words, compared with pentazocine; for ED50: sc, mouse, subcutaneous, hydrochloride salts of IX and X, 50 percent reduction in number of writhings
Excerpt: ^1 A 50 percent reduction in number of phenylquinone induced writhing
[Siegmumd, E.A., et al., Proc. Soc. Biol. & Med 95, p. 729 (1957)].

[4] = system: Straub Tail induced by oxymorphone; assay: Oxymorphone Straub Tail antagonism (antagonist activity); assay type: in vivo, mouse; settings: for ED50: sc, mouse, subcutaneous, hydrochloride salts of IX and X, oxymorphone 2 mg./kg. s.c.
Experimental: ^2 Antagonism of Straub Tail induced by oxymorphone (2 mg./kg. s.c.)

[5] = Behavioral studies in the dog; assay type: in vivo; settings: subcutaneous dose of 2 mg./kg.
Experimental: The normal parenteral dosage of the compounds of this invention in adult humans is about 0.25 to 16 mg. three to four times a day.

[6] = system: analgesic effect induced by morphine; assay: Morphine antagonist rat tail flick (antagonist activity); settings: for ED50: Rattus norvegicus, sc, read-out: ED50 Antagonist Activity, Morphine Antagonist Rat Tail Flick
[7] = J. Med. Chem. 12, 845-847 (1969); cited from earlier work
[8] = monkey; J. Med. Chem. 12, 845-847 (1969); cited from earlier work

Row | SMILES | analgesic activity (in words) [1] | antagonism to meperidine (in words) [2] | analgesic potency relative to pentazocine [3] | ED50 [3] | ED50 [4] | side effects in behavioral studies [5] | ED50 [6] | other results
1 | Oc1ccc2c(c1)[C@@]13CCCC[C@H]1[C@@H](C2)N(CC1CCC1)CC3 (stereo in doubt) [N-cyclobutylmethyl-3-hydroxymorphinan] | analgesics | antagonists to meperidine | – | – | – | – | – | –
2 | Oc1ccc2c(c1)[C@]13CCN(CC4CC4)[C@H](C2)[C@@H]1CCc1ccccc13 (relative stereo) [IX, 3-Hydroxy-17-cyclopropylmethyl-5,6-benzomorphinan] | – | – | about the same analgesic potency as pentazocine | ~4.5 mg/kg | ~40 mg/kg | free of side effects | 2.3 mg/kg | antagonist activity (in words) ([4]; test not given): little antagonist activity
3 | CC(C)=CCN1CCC2(C)c3cc(O)ccc3CC1C2C (centres unmarked) [Pentazocine, reference compound] | – | – | – | 3.7 mg/kg | 12 mg/kg | – | 12.2 mg/kg | –
4 | Oc1ccc2c(c1)[C@]13CCN(CC4CCC4)[C@H](C2)[C@@H]1CCc1ccccc13 (relative stereo) [X, 3-Hydroxy-17-cyclobutylmethyl-5,6-benzomorphinan] | – | – | about the same analgesic potency as pentazocine | ~4.5 mg/kg | > 40 mg/kg | free of side effects | – | times more active as an antagonist in the rat than pentazocine ([6]; rat, relative to pentazocine): approximately 5 times
5 | NC(=O)N1CCC2CC1Cc1ccc(O)cc12 (centres unmarked) [3-carboxamido-1,2,3,4,5,6-hexahydro-2,6-methano-3-benzazocin-8-ol] | – | – | – | – | – | – | – | analgetic effect, oral (in words) [7]: orally effective analgetic; physical dependence capacity (in words) [8]: unusual freedom from physical dependence capacity in the monkey
6 | Oc1ccc2c(c1)[C@@]13CCCC[C@H]1[C@@H](C2)N(CC1CC1)CC3 [N-cyclopropylmethyl-3-hydroxymorphinan] | analgesics | antagonists to meperidine | – | – | – | – | – | –
